The source of these data is patent publication US7638509B2, “Diene compounds and formulations” (priority 2003, dated 2009).

The structures appear in SMILES notation.

What all share (assay type): cell-based
Assay [1] deals with T1, progesterone receptor (PR) (Homo sapiens, UniProt P06401).
T1 construct: expressed in transfected cells; host or cells: PC-3
T1 sequence (P06401 1-933): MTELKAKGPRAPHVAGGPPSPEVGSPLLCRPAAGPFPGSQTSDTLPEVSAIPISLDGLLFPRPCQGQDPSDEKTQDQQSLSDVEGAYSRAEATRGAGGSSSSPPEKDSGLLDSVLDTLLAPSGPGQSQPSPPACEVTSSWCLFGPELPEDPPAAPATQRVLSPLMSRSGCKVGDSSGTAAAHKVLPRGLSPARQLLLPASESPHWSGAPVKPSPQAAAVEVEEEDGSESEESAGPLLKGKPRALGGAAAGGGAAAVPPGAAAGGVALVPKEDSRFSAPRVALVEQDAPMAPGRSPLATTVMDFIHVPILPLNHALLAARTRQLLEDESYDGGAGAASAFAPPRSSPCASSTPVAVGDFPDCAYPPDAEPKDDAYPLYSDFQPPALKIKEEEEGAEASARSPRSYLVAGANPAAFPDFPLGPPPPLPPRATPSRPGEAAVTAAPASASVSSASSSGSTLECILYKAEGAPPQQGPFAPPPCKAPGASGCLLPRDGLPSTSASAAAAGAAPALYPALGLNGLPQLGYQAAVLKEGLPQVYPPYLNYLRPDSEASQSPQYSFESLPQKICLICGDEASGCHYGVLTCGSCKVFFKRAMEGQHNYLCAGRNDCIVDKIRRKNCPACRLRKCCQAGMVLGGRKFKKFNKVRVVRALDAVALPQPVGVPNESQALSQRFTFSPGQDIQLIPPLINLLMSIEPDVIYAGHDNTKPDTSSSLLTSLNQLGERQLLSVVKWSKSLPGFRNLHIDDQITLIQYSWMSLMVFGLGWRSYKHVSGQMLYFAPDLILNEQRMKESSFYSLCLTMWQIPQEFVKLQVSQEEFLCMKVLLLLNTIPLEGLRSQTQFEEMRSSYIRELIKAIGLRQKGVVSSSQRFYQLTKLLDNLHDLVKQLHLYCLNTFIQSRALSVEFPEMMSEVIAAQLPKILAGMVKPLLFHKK
Description: Steroid hormone specificity, PR/MMTV-Luc in PC-3 cells. The conditions noted are these: PC-3, PR/MMTV-Luc, ADEK at 0.01 mM, 0.1 mM and 1.0 mM, 24 h. As for the experimental part: Cell Culture, Transfection, and Reporter Gene Assay. The human prostate cancer cell lines, LNCaP, PC-3, and DU145, and non-prostate cancer cell line COS-1 were maintained in RPMI or Dulbecco's modified Eagle's medium (DMEM) (Life Technologies) supplemented with 10% fetal bovine serum (FBS). Transfections and luciferase (Luc) assays were performed as previously described (Miyamoto, H., Yeh, S., Wilding, G. & Chang, C. (1998) Proc. Natl. Acad. Sci. USA 95, 7379-7384; Miyamoto, H., Rahman, M., Takatera, H., Kang, H.-Y., Yeh, S., Chang, H.-C., Nishimura, K., Fujimoto, N. & Chang, C. (2002) J. Biol. Chem. 277, 4609-4617). Briefly, cells seeded to reach a density of 50-60% confluence in 12 well tissue culture plates were transfected with 1.5 μg of DNA according to “SuperFect transfection” instructions (Qiagen). […] The Luc activity was determined using a Dual-Luciferase Reporter Assay System (Promega) and luminometer.
Steroid Hormone Specificity of ADEK. To characterize the steroid hormone activity of ADEK, PC-3 cells were transfected with steroid receptor/reporter (progesterone receptor (PR)/MMTV-Luc, glucocorticoid receptor (GR)/MMTV-Luc, or estrogen receptor (ER)/ERE-Luc) and analyzed for expression of the Luc reporter gene. […] The Luc activity was measured relative to that of ETOH treatment (set as 1-fold). […]

Assay [2] concerns the target T2, wild-type AR (Homo sapiens, UniProt P10275).
T2 sequence (P10275 1-920): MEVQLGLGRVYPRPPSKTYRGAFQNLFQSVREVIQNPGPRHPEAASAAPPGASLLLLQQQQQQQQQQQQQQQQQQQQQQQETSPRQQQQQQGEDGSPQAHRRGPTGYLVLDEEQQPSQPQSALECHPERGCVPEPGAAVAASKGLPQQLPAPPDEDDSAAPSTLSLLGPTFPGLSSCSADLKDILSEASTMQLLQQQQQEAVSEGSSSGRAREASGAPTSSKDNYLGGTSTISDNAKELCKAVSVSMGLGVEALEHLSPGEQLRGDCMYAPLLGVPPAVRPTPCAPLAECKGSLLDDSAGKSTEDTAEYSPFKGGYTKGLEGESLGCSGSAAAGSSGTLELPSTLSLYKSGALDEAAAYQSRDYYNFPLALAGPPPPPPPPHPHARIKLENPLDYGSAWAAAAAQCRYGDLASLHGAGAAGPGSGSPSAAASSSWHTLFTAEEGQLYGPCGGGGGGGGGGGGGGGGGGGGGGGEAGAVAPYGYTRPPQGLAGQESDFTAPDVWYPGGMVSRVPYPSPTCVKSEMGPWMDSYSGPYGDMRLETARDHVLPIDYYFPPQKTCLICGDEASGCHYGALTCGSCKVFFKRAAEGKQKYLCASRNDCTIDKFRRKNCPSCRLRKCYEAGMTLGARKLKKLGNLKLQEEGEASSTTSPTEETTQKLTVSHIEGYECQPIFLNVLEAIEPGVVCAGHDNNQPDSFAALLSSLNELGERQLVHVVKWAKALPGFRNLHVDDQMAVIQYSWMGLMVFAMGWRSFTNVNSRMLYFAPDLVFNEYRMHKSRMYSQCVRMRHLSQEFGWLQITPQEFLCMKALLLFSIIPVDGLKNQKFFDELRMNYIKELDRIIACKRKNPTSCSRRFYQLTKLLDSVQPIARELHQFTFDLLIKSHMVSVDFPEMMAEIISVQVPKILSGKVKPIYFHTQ
In words: Anti-DHT activity on AR transcription, MMTV-Luc reporter in PC-3 cells transfected with AR. On the set-up: expressed in transfected cells; host or cells: PC-3. Conditions: PC-3, 1 nM DHT, compound at 0.01, 0.1 or 1 μM, dose-dependent. As for the experimental part: (§1) Cell Culture, Transfection, and Reporter Gene Assay. The human prostate cancer cell lines, LNCaP, PC-3, and DU145, and non-prostate cancer cell line COS-1 were maintained in RPMI or Dulbecco's modified Eagle's medium (DMEM) (Life Technologies) supplemented with 10% fetal bovine serum (FBS). Transfections and luciferase (Luc) assays were performed as previously described (Miyamoto, H., Yeh, S., Wilding, G. & Chang, C. (1998) Proc. Natl. Acad. Sci. USA 95, 7379-7384; Miyamoto, H., Rahman, M., Takatera, H., Kang, H.-Y., Yeh, S., Chang, H.-C., Nishimura, K., Fujimoto, N. & Chang, C. (2002) J. Biol. Chem. 277, 4609-4617). Briefly, cells seeded to reach a density of 50-60% confluence in 12 well tissue culture plates were transfected with 1.5 μg of DNA according to “SuperFect transfection” instructions (Qiagen). After 2-3 h incubation, cells were treated with medium supplemented with charcoal-stripped FBS containing either ethanol or ligands for 24 h. The cells were then harvested and whole cell extracts were used for Luc assay. The Luc activity was determined using a Dual-Luciferase Reporter Assay System (Promega) and luminometer.
To accomplish these studies, PC-3 cells were transfected with the wild-type AR expression plasmid pSG5-AR and MMTV-Luc. […] The Luc activity was measured relative to that of ethanol treatment (set as 1-fold). Values from the mean±SD of at least three determinations were used. PC-3 cells were transfected with the pSG5-AR and MMTV-Luc. […] Values from the mean±SD of at least three determinations were obtained.

Assay [3] concerns the target T2, wild-type AR. Description: Adiol-induced AR transcription, MMTV-Luc in PC-3 cells with pSG5-AR. On the set-up: expressed in transfected cells; host or cells: PC-3. Conditions: PC-3, 2.5 nM Adiol, compound at 1 μM. The method, then:
as §1
Effect of ADEK on AR Transcription. […] (set as 100%). Values were obtained from the mean±SD of at least three determinations.

As to `CC(=O)O[C@H]1C=C[C@@]2(C)C(=CC[C@@H]3[C@@H]2CC[C@@]2(C)[C@H]3CCC23OCCO3)C1` [ADEK, 3β-acetoxy-17,17-ethylenedioxyandrosta-1,5-diene], the “progesterone activity (in words)” value in assay [1] is “no significant”. Also, the “DHT-induced AR transactivation suppressed to (Luc activity relative to DHT = 100%)” value at wild-type AR [2] is recorded as 30%. For the same compound, the “repression of Adiol-induced AR transcription” value at wild-type AR [3] was “about 43%”.
